The source of these data is publication PMC11172862, “Mechanistic and Structural Insights on Difluoromethyl-1,3,4-oxadiazole Inhibitors of HDAC6” (International Journal of Molecular Sciences, 2024).

Read-outs that look alike come from different tables or passages of the source.

A word on the IC50: it is the concentration that inhibits the measured activity by half. A word on the Ki: it is a dissociation constant, usually derived from enzyme kinetics or from competition with a known ligand.

One assay deals with T1, zHDAC6-CD2 (Danio rerio, UniProt F8W4B7).
T1 construct: 8xHis-MBP (TEV-cleavable) (N, cleaved yes); made in house; host or cells: E. coli
T1 sequence (F8W4B7 440-798): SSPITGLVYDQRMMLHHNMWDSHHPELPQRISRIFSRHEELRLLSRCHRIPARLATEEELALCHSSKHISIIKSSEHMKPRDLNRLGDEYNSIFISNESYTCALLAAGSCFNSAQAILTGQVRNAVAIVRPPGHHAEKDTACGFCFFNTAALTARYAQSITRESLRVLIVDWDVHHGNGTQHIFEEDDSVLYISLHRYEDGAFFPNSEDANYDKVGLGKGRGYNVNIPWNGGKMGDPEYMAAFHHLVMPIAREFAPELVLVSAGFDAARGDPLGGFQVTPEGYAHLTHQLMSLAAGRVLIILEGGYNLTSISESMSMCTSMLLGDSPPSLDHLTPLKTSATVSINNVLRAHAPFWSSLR
Nature of the assay: LC-MS time course of DFMO hydrolysis by zHDAC6-CD2. As to conditions: absence of competitor. Type of assay: biochemical, zebrafish. As for the experimental part:
In order to achieve a fast and sufficient conversion of DFMO to DFAcH before the addition of the competitor, and to minimize its effect on the first hydrolysis step, ITF3756 was added after a very short DFMO–enzyme pre-incubation (1 min). Subsequently, at each time point (Figure 4), an aliquot of the reaction mixture was mixed with acetonitrile to unfold the protein and quench the enzymatic activity. Each aliquot was analyzed by liquid LC-MS to determine the compound concentrations.
Experiments like those shown in panel A and C were carried out in the presence of 100 μM ITF3756, which was added after 1 min of ITF5924-enzyme (B) or ITF7209-enzyme (D) pre-incubation. All the experiments were carried out in triplicate. The lines simply join the average values of the experimental points. The incomplete recovery could be attributed to the relatively high enzyme concentration, possibly resulting in coprecipitation phenomena upon the addition of acetonitrile. […]
(§1) obtained in the absence of inhibitor. Such inhibition data were fitted in the GraphPad Prism software (version 10.2.2, La Jolla, CA, USA) using nonlinear regression analysis.
(§2) Eq. 1 P = v௦ ∙t + (vi − vs )[1 − exp(−kobs ∙t)] / kobs
(§3) In Eq. 1, P is the product concentration, expressed as fluorescence intensity, and t is the reaction time (in minutes) (7). For the determination of IC50 values, vo for fast-on inhibitors or vs for slow-on compounds were used to calculate the inhibition, as percentage with respect to the value obtained in the absence of inhibitor. Such inhibition data were fitted in GraphPad Prism software (version 10.2.2, La Jolla, CA, USA) using nonlinear regression analysis. […]
(§4) kobs values on inhibitor concentration was used to determine the mechanism of inhibition. “One-step” or a “two-step” (or “induced-fit) processes are the most common mechanisms of slow binding inhibition (Figure S2) and the resulting “kobs plots” should be linear for mechanism A and hyperbolic […]

Assay [1] addresses T2, Human HDAC1 (Homo sapiens, UniProt Q13547).
T2 construct: purchased BPS Bioscience 50051
Further details: method as in PMID 36528061. As to conditions: included for comparison; ref [22]; read-out: HDACs IC50, HDAC1; cited from earlier work.

The target of assay [2] is T3, human HDAC6 (Homo sapiens, UniProt Q9UBN7).
T3 construct: purchased BPS Bioscience 50006
T3 sequence (Q9UBN7 1-1215): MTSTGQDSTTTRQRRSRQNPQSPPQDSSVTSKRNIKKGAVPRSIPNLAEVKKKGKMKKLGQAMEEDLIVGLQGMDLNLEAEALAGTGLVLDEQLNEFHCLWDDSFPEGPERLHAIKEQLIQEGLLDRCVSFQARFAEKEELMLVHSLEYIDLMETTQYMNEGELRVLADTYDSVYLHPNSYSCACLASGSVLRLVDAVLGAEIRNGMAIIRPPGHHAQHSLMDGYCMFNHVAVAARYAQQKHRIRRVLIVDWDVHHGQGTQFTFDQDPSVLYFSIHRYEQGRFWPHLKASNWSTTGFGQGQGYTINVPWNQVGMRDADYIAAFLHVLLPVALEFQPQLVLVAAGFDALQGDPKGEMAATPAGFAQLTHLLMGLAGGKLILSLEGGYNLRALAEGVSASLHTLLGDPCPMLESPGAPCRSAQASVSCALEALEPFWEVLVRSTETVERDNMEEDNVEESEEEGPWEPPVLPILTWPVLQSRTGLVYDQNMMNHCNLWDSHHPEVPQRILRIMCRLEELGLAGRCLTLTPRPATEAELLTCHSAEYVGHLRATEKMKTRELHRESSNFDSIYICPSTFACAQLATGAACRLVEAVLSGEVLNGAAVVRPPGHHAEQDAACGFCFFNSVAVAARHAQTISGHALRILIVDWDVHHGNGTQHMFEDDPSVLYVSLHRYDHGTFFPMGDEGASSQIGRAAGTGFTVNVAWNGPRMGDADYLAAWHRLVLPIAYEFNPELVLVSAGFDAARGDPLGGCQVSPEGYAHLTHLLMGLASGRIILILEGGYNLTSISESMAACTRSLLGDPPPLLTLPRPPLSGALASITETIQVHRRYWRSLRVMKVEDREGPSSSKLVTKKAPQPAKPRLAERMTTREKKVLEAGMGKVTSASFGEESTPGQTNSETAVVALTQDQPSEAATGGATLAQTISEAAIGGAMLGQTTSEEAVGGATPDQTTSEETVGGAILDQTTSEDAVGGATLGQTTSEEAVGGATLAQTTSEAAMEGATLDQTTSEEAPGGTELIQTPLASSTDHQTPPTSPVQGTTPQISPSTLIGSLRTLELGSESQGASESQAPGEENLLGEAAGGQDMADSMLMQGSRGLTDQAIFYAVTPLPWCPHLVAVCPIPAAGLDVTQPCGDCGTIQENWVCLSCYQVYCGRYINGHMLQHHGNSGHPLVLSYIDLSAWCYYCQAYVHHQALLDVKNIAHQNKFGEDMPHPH
Details: method as in PMID 36528061. Particulars: included for comparison; ref [22]; read-out: HDACs IC50, HDAC6; cited from earlier work.

Assay [3] has as its target T4, second catalytic domain of zebrafish HDAC6 (zHDAC6-CD2) (Danio rerio, UniProt F8W4B7).
T4 construct: 8xHis-MBP (TEV-cleavable) (N, cleaved yes); made in house; host or cells: E. coli
T4 sequence (F8W4B7 440-798): T1 sequence (F8W4B7 440-798)
Details: method as in PMID 36528061. As to conditions: included for comparison; ref [22]; read-out: HDACs IC50, zHDAC6-CD2; cited from earlier work.

For assay [4], the target named is T3, human HDAC6. Nature of the assay: Fluorometric HDAC activity assay (Fluor de Lys Green), human full-length HDAC6. Type of assay: biochemical. Particulars: for IC50: human full-length HDAC6, 25 °C, 3 µM Fluor de Lys Green, read-out: HDACs IC50, HDAC6. As for the experimental part:
(§5) Optimized fluorometric enzymatic assays were used as previously reported (5, 6). Briefly, the time-course of the reaction was monitored at 25 °C in HDAC assay buffer [25 mM Tris/HCl, pH 8.0, 130 mM NaCl, 0.05% Tween-20, 10% Glycerol, 1 mg/mL bovine serum albumin (BSA), 0.5 mM tris(2-carboxyethyl)phosphine (TCEP) and 1% DMSO]. Human HDAC1 (Catalog 50051, BPS Bioscience, San Diego, CA, USA), human HDAC6 (Catalog 50006, BPS Bioscience, San Diego, CA, USA) and the second catalytic domain of zebrafish HDAC6 (zHDAC6-CD2) were used at catalytic concentrations of 710 pM, 62.5-125 pM and 0.12 nM, respectively. The Fluor de Lys Green substrate (Enzo Life Sciences, Farmingdale, New York, USA) was included at a concentration close to the Km value, 3 µM for HDAC6 forms and 25 µM for HDAC1. For fast binding inhibitors, the initial velocity (vo) was calculated as (∆F/min) from the slope of the straight line fitting the data points. In the case […]
velocity (vi), the steady-state velocity at long reaction times (vs), and the apparent first-order rate constant (kobs). In Eq 1, P is the product concentration, expressed as fluorescence intensity and t is the reaction time (in minutes) (7). All progress curves are generated by using GraphPad Prism software (version 10.2.2, La Jolla, CA, USA). For IC50 determination, vo for fast-on inhibitors or vs for slow-on compounds were used to calculate the inhibition, as percentage with respect to the value […]
as §1, §2, §3, §4
to equation 2, assuming the validity of mechanism B, where Ki is the dissociation constant of the […]

The target of assay [5] is T4, second catalytic domain of zebrafish HDAC6 (zHDAC6-CD2). The experiment in a line: Fluorometric HDAC activity assay (Fluor de Lys Green), zHDAC6-CD2. Type of assay: biochemical. Particulars: for IC50: 25 °C, 3 µM Fluor de Lys Green, read-out: HDACs IC50, zHDAC6-CD2. The procedure:
as §5
velocity (vi), the steady-state velocity at long reaction times (vs), and the apparent first-order rate constant (kobs). In Eq 1, P is the product concentration, expressed as fluorescence intensity and t is the reaction time (in minutes) (7). All progress curves are generated by using GraphPad Prism software (version 10.2.2, La Jolla, CA, USA). For IC50 determination, vo for fast-on inhibitors or vs for slow-on compounds were used to calculate the inhibition, as percentage with respect to the value
(1 picture or pasted object on this page, not shown here) […]
as §1, §2, §3, §4
to equation 2, assuming the validity of mechanism B, where Ki is the dissociation constant of the initial EI complex, whereas k2 and k-2 are the rate constants describing the formation of the tight EI* complex. IC50 reflects the dissociation constant of the EI* complex (Ki*). […]
Samples were kept frozen at -80 °C until the LC-HRMS analysis. The experiment was performed in […]
(ITF6715, ITF7738) and hydrazide (ITF6712, ITF7739) derivatives in the samples was performed with respect to calibration curves obtained with varying concentrations of each compound. Raw data were then imported into GraphPad Prism (version 10.2.2, La Jolla, CA, USA) to generate Figure 4.
The LC-HRMS analysis was carried out using a Vanquish Flex UHPLC (Thermo Fisher Scientific, Waltham, Massachusetts, USA) and a high-resolution mass spectrometer Orbitrap QExactive Focus (Thermo Fisher Scientific, Waltham, Massachusetts, USA), equipped with a Heated Electrospray Ionization, operated in positive mode. A Full Scan analysis was set in the m/z range 50-500 amu. A XSelect HSS T3 50x2.1 mm, 2.5 µm chromatographic column (Waters, Milford, Massachusetts, USA) was used. Mobile phase A consisted of 0.1% formic acid in water and mobile phase B in 0.1% formic acid in acetonitrile. The flow rate was set to 0.5 mL/min, with a gradient program from 3 to 20% B in 3 minutes. The software Chromeleon CDS (version 7.3.2, Thermo Fisher Scientific, Waltham, Massachusetts, USA) was used for acquisition, processing, and signal integration. […]

In assay [6] the target is T2, Human HDAC1. The experiment in a line: Fluorometric HDAC activity assay (Fluor de Lys Green), human HDAC1. Particulars: 25 °C, 25 µM Fluor de Lys Green; read-out: HDACs IC50, HDAC1. Type of assay: biochemical. The procedure: as §5
velocity (vi), the steady-state velocity at long reaction times (vs), and the apparent first-order rate constant (kobs). In Eq 1, P is the product concentration, expressed as fluorescence intensity and t is the reaction time (in minutes) (7). […]
In Eq. 1, P is the product concentration, expressed as fluorescence intensity, and t is the reaction time (in minutes) (7). […]

Where [7] appears, read: 5 µM DFMO, 5 µM zHDAC6-CD2, 25 °C.

T2 sequence (Q13547 whole entry): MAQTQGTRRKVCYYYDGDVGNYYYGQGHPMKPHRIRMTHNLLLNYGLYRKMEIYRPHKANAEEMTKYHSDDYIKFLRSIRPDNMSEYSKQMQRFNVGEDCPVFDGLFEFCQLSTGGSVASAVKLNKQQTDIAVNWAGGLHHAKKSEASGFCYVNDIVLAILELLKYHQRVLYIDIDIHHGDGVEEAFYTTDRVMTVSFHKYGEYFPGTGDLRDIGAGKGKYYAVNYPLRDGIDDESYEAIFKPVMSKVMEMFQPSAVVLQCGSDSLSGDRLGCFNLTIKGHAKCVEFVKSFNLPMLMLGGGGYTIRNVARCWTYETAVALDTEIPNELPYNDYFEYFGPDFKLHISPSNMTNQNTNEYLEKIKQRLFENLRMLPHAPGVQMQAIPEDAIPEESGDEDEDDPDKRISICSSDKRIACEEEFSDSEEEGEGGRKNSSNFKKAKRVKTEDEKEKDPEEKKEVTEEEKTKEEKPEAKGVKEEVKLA

On to `FC(F)c1nnc(-c2ccc(Cn3cc(-c4ccc(NC5=NCCN5)cc4)nn3)cc2)o1` [ITF5924], for which the “Time after which DFMO substantially disappeared” value on zHDAC6-CD2 (setting [7]) turned out to be 10 min. Further, the values for the half-maximal inhibitory concentration (IC50) (on Human HDAC1 [1]; on human HDAC6 [2]; in assay [3]) were more than 100 µM, 7.7 ± 0.3 nM and 7.8 ± 0.4 nM, respectively.
`NNC(=O)c1ccc(Cn2cc(-c3ccc(NC4=NCCN4)cc3)nn2)cc1` [ITF6712]: on zHDAC6-CD2 (hydrolysis of 5 µM ITF5924 by 5 µM zHDAC6-CD2, 25 °C), the “Amount of hydrazide product detectable” value came out at 13%. Further, the values for the half-maximal inhibitory concentration (IC50) at Human HDAC1 [1] and on human HDAC6 [2] were more than 100 µM and 330 nM, respectively.
Take `O=C(NNC(=O)C(F)F)c1ccc(Cn2cc(-c3ccc(NC4=NCCN4)cc3)nn2)cc1` [ITF6715]: the values for the 50% inhibitory concentration (IC50) (on Human HDAC1 [1]; on human HDAC6 [2]; in assay [3]) were more than 100 µM, 1600 nM and 2300 nM, respectively.
With `CC(C)(C)c1cn(Cc2ccc(-c3nnc(C(F)F)o3)s2)nn1` [ITF7209], the “Rate of DFMO consumption compared to ITF5924” value on zHDAC6-CD2 (setting [7]) is given as “slower rate of DFMO consumption”. In addition, the “k2 (rate constant, formation of the tight EI* complex)” value on human HDAC6 [4] (human HDAC6, fit of kobs to Eq. 2) was 0.52 ± 0.01 min⁻¹; in assay [5] (zHDAC6-CD2, fit of kobs to Eq. 2) it was 0.86 ± 0.02 min⁻¹. Moreover, the Mode of inhibition result on human HDAC6 [4] (human full-length HDAC6, progress curves) is “slow binding inhibitor”; in assay [5] (zHDAC6-CD2, progress curves), “slow binding inhibitor”. Also, the half-inhibitory concentration (IC50) in assay [5] was determined as 6.7 ± 0.4 nM. For the same molecule, in assay [5] (zHDAC6-CD2, fit of kobs to Eq. 2, induced-fit model, read-out: Ki (dissociation constant of the initial EI complex)), the inhibitory constant (Ki) turned out to be 980 ± 40 nM.
For `CC(C)(C)c1cn(Cc2ccc(C(=O)NNC(=O)C(F)F)s2)nn1` [ITF7738], the concentration for half-maximal inhibition (IC50) at Human HDAC1 [6] was more than 100 µM; on human HDAC6 [4], more than 100 µM; in assay [5], 72000 nM.
`CC(C)(C)c1cn(Cc2ccc(C(=O)NN)s2)nn1` [ITF7739]: the IC50 is more than 100 µM on Human HDAC1 [6], 5.1 µM at human HDAC6 [4] and 1000 nM in assay [5].
